US20220395472A1 (Dermavant Sciences GmbH, priority 2021, published 2022)

Test system: adults with plaque psoriasis
Assay: Long-term open-label extension study (PSOARING 3): Physician Global Assessment (PGA), treatment episodes, treatment success, remittive effect
Format: in vivo, human
Protocol: This extension study consisted of up to 40 weeks of treatment and a 4 week, safety follow up period.
At the completion of the Week 12 visit of the DB, pivotal Phase 3 study, eligibility of the subjects opting to enroll in this extension study was confirmed. Study visits during the treatment period for all subjects occurred every 4 weeks (±3 days). A phone call was performed at Week 2 (Day 15). Unscheduled visits may have occurred, as needed. Subjects who withdrew from this study before Week 40 returned to the study center for an Early Termination visit. The total duration of this extension study participation was 44 weeks. Subjects in this study were treated as follows based on their PGA score from the Week 12 visit in the DB, pivotal Phase 3 study (Study DMVT 505 3001 or Study DMVT 505 3002).
The PGA was used to assess the primary efficacy endpoint in this study. The PGA is a clinical tool for assessing the current state/severity of a subject's psoriasis at a given time point. It is a static, 5 point, morphological assessment of overall disease severity, as determined by the Investigator, using the clinical characteristics of erythema, scaling, and plaque thickness/elevation as guidelines; higher PGA scores represent more severe disease (0=clear, 1=almost clear, 2=mild, 3=moderate, and 4=severe). The BSA affected was not considered in scoring of the PGA. Variations of the PGA are frequently used in clinical studies because it is a simple assessment, similar to those used in clinical practice. The PGA was performed first, prior to the % BSA, PASI, and LTS assessments.
Time to event parameters, such as the time from treatment success to subsequent worsening (PGA≥2) or duration of treatment episode, were summarized by the Kaplan Meier product limit method using OC.

[1] = Baseline PGA = 3, Tapinarof (Pivotal) group
[2] = Baseline PGA = 3, Vehicle (Pivotal) group
[3] = Baseline PGA = 4, Tapinarof (Pivotal) group
[4] = Baseline PGA = 4, Vehicle (Pivotal) group

For CC(C)c1c(O)cc(/C=C/c2ccccc2)cc1O [Tapinarof, 3,5-Dihydroxy-4-isopropyl-trans-stilbene], the “Total Duration of Treatment Success, Mean (SD)” value [1] was 67.3 (54.20) days, the “Total Duration of Treatment Success, Median” value [1] was 56.5 days and the “Average Duration of Episodes, Mean (SD)” value [2] was 174.0 (94.06) days. For the same compound, the “Average Duration of Episodes, Median” value [2] was 195.0 days, the “Average Duration of Treatment Success, Mean (SD)” value [2] was 67.1 (57.99) days and the “Average Duration of Treatment Success, Median” value [2] was 51.0 days. The “Duration of 1st Episode, Mean (SD)” value [2] was 177.1 (92.70) days, the “Duration of 1st Episode, Median” value [2] was 195.5 days and the “Duration of 1st Success, Mean (SD)” value [2] was 70.3 (58.38) days. The “Duration of 1st Success, Median” value [2] was 56.0 days, the “Duration of 2nd Episode, Mean (SD)” value [2] was 56.4 (37.29) days and the “Duration of 2nd Episode, Median” value [2] was 55.5 days. For the same compound, the “Duration of 2nd Success, Mean (SD)” value [2] was 29.2 (18.23) days, the “Duration of 2nd Success, Median” value [2] was 28.0 days and the “Duration of 3rd Episode, Mean (SD)” value [2] was 55.2 (27.44) days. The “Duration of 3rd Episode, Median” value [2] was 57.0 days, the “Duration of 3rd Success, Mean (SD)” value [2] was 28.0 (NE) days and the “Duration of 3rd Success, Median” value [2] was 28.0 days. The “Duration of 4th Episode, Mean (SD)” value [2] was 1.0 (NE) days, the “Duration of 4th Episode, Median” value [2] was 1.0 days and the “Duration of Last Episode, Mean (SD)” value [2] was 171.4 (97.39) days. The “Duration of Last Episode, Median” value [2] was 195.0 days, the “Duration of Last Success, Mean (SD)” value [2] was 63.8 (59.74) days and the “Duration of Last Success, Median” value [2] was 49.0 days. For the same compound, the “Total Duration of Treatment Episodes, Mean (SD)” value [2] was 186.1 (87.86) days, the “Total Duration of Treatment Episodes, Median” value [2] was 197.5 days and the “Total Duration of Treatment Success, Mean (SD)” value [2] was 77.4 (58.26) days. For the same compound, the “Total Duration of Treatment Success, Median” value [2] was 81.0 days, the “Average Duration of Episodes, Mean (SD)” value (Baseline PGA = 4, Overall) was 187.5 (102.01) days and the “Average Duration of Episodes, Median” value (Baseline PGA = 4, Overall) was 225.0 days. For the same compound, the “Average Duration of Treatment Success, Mean (SD)” value (Baseline PGA = 4, Overall) was 104.5 (56.36) days, the “Average Duration of Treatment Success, Median” value (Baseline PGA = 4, Overall) was 93.0 days and the “Duration of 1st Episode, Mean (SD)” value (Baseline PGA = 4, Overall) was 187.4 (102.04) days. The “Duration of 1st Episode, Median” value (Baseline PGA = 4, Overall) was 225.0 days, the “Duration of 1st Success, Mean (SD)” value (Baseline PGA = 4, Overall) was 104.5 (56.36) days and the “Duration of 1st Success, Median” value (Baseline PGA = 4, Overall) was 93.0 days. The “Duration of 2nd Episode, Mean (SD)” value (Baseline PGA = 4, Overall) was 85.0 (NE) days, the “Duration of 2nd Episode, Median” value (Baseline PGA = 4, Overall) was 85.0 days and the “Duration of Last Episode, Mean (SD)” value (Baseline PGA = 4, Overall) was 187.5 (101.99) days. For the same compound, the “Duration of Last Episode, Median” value (Baseline PGA = 4, Overall) was 225.0 days, the “Duration of Last Success, Mean (SD)” value (Baseline PGA = 4, Overall) was 104.5 (56.36) days and the “Duration of Last Success, Median” value (Baseline PGA = 4, Overall) was 93.0 days. For the same compound, the “Total Duration of Treatment Episodes, Mean (SD)” value (Baseline PGA = 4, Overall) was 191.1 (99.63) days, the “Total Duration of Treatment Episodes, Median” value (Baseline PGA = 4, Overall) was 225.0 days and the “Total Duration of Treatment Success, Mean (SD)” value (Baseline PGA = 4, Overall) was 104.5 (56.36) days. The “Total Duration of Treatment Success, Median” value (Baseline PGA = 4, Overall) was 93.0 days, the “Average Duration of Episodes, Mean (SD)” value [3] was 132.9 (100.39) days and the “Average Duration of Episodes, Median” value [3] was 113.0 days. The “Average Duration of Treatment Success, Mean (SD)” value [3] was 119.5 (79.90) days, the “Average Duration of Treatment Success, Median” value [3] was 119.5 days and the “Duration of 1st Episode, Mean (SD)” value [3] was 132.9 (100.39) days. For the same compound, the “Duration of 1st Episode, Median” value [3] was 113.0 days, the “Duration of 1st Success, Mean (SD)” value [3] was 119.5 (79.90) days and the “Duration of 1st Success, Median” value [3] was 119.5 days. For the same compound, the “Duration of Last Episode, Mean (SD)” value [3] was 132.9 (100.39) days, the “Duration of Last Episode, Median” value [3] was 113.0 days and the “Duration of Last Success, Mean (SD)” value [3] was 119.5 (79.90) days. The “Duration of Last Success, Median” value [3] was 119.5 days, the “Total Duration of Treatment Episodes, Mean (SD)” value [3] was 132.9(100.39) days and the “Total Duration of Treatment Episodes, Median” value [3] was 113.0 days. For the same compound, the “Total Duration of Treatment Success, Mean (SD)” value [3] was 119.5 (79.90) days, the “Total Duration of Treatment Success, Median” value [3] was 119.5 days and the “Average Duration of Episodes, Mean (SD)” value [4] was 211.3 (96.08) days. For the same compound, the “Average Duration of Episodes, Median” value [4] was 267.0 days, the “Average Duration of Treatment Success, Mean (SD)” value [4] was 89.5 (47.38) days and the “Average Duration of Treatment Success, Median” value [4] was 89.5 days. For the same compound, the “Duration of 1st Episode, Mean (SD)” value [4] was 211.3 (96.13) days, the “Duration of 1st Episode, Median” value [4] was 267.0 days and the “Duration of 1st Success, Mean (SD)” value [4] was 89.5 (47.38) days. The “Duration of 1st Success, Median” value [4] was 89.5 days, the “Duration of 2nd Episode, Mean (SD)” value [4] was 85.0 (NE) days and the “Duration of 2nd Episode, Median” value [4] was 85.0 days. For the same compound, the “Duration of Last Episode, Mean (SD)” value [4] was 211.4 (96.04) days, the “Duration of Last Episode, Median” value [4] was 267.0 days and the “Duration of Last Success, Mean (SD)” value [4] was 89.5 (47.38) days. For the same compound, the “Duration of Last Success, Median” value [4] was 89.5 days, the “Total Duration of Treatment Episodes, Mean (SD)” value [4] was 216.6 (90.82) days and the “Total Duration of Treatment Episodes, Median” value [4] was 267.0 days. For the same compound, the “Total Duration of Treatment Success, Mean (SD)” value [4] was 89.5 (47.38) days, the “Total Duration of Treatment Success, Median” value [4] was 89.5 days and the “PGA 0 - Clear” value (Baseline, Overall) was 78 (10.3) n (%). For the same compound, the “PGA 1 - Almost Clear” value (Baseline, Overall) was 161 (21.2) n (%) and the “PGA 2 - Mild” value (Baseline, Overall) was 248 (32.7) n (%).
